pIC50: −log10 of the molar value.
What was measured:
Assay in all cases: Enzymatic Activity Assay
Settings in all cases: pH 7.5; 22 °C
[1] = biological target: Serine/threonine-protein kinase PLK2 (Homo sapiens, UniProt Q9NYY3)
[2] = biological target: Serine/threonine-protein kinase PLK1 (Homo sapiens, UniProt P53350)
[3] = biological target: Serine/threonine-protein kinase PLK3 (Homo sapiens, UniProt Q9H4B4)
Chain of Serine/threonine-protein kinase PLK3 (Q9H4B4 whole entry): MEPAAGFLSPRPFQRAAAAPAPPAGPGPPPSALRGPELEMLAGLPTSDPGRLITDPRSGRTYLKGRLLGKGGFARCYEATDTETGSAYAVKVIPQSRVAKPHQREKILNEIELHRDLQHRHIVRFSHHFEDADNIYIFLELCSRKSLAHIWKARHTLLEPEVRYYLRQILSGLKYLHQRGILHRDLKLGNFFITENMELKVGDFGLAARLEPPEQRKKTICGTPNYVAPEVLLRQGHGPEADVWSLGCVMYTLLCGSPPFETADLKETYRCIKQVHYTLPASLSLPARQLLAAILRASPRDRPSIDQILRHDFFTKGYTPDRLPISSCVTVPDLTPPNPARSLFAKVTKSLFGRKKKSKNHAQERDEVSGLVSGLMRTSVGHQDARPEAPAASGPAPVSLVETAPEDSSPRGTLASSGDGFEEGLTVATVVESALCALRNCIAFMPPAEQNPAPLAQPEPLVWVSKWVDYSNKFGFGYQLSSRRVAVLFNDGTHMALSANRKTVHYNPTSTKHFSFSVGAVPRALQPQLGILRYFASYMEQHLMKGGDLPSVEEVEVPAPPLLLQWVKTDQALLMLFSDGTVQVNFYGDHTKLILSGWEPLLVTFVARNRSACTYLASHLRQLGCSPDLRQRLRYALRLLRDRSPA

Chain of Serine/threonine-protein kinase PLK2 (Q9NYY3 whole entry): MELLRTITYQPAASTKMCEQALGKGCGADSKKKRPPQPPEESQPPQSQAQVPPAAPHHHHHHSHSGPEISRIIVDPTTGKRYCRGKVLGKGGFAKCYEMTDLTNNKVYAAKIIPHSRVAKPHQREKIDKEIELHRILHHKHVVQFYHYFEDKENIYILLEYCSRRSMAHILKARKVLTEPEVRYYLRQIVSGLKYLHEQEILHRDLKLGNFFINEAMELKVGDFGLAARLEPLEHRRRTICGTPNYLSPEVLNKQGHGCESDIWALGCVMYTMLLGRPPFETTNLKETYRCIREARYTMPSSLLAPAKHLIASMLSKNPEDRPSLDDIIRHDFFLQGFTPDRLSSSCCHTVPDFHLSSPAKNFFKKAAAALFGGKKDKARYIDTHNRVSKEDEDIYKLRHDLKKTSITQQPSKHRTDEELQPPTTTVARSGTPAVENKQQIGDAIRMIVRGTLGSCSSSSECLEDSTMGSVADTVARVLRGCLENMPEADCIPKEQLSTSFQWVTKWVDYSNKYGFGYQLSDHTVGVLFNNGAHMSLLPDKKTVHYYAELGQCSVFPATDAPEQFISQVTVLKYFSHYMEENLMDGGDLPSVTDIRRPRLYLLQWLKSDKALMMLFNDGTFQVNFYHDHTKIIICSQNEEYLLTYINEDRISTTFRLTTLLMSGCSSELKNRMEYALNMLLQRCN
Chain of Serine/threonine-protein kinase PLK1 (P53350 whole entry): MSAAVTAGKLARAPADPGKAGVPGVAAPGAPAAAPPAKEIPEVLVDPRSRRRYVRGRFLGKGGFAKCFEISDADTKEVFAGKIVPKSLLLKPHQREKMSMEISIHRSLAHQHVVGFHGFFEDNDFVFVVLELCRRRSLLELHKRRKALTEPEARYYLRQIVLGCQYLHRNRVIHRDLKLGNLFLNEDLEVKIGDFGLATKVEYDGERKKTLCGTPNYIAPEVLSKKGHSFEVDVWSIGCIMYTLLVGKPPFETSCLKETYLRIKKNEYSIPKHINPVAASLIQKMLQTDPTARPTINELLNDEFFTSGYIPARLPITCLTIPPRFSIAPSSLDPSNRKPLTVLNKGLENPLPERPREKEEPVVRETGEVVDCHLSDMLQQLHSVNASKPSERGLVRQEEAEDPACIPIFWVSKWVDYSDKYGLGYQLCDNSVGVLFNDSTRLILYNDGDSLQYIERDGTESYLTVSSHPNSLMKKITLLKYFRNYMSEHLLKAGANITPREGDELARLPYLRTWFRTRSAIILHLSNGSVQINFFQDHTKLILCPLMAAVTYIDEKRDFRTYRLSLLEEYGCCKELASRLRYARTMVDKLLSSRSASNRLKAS

| pIC50 [1] | pIC50 [2] | pIC50 [3] | SMILES |
| --- | --- | --- | --- |
| < 5.00 | 6.84 | 5.59 | COc1cc(N2CCN(C)CC2)ccc1Nc1ncc(C(C)=O)c(NC2CCCC2)n1 [1-[4-(cyclopentylamino)-2-{[2-methoxy-4-(4-methylpiperazin-1-yl)phenyl]amino}pyrimidin-5-yl]ethan-1-one] |
| 7.94 | 8.30 | 8.17 | CC[C@@H]1C(=O)N(C)c2cnc(Nc3ccc(C(=O)NC4CCN(C)CC4)cc3)nc2N1C1CCCC1 [4-{[(7R)-8-cyclopentyl-7-ethyl-5-methyl-6-oxo-5,6,7,8-tetrahydropteridin-2-yl]amino}-N-(1-methylpiperidin-4-yl)benzamide] |
| 6.43 | 6.46 | 5.46 | CC(=O)c1cnc(Nc2ccc(N3CCN(C)CC3)cc2)nc1NC1CCCC1 [1-[4-(cyclopentylamino)-2-{[4-(4-methylpiperazin-1-yl)phenyl]amino}pyrimidin-5-yl]ethan-1-one] |

From BindingDB's records for doi:10.1111/j.1747-0285.2007.00594.x (Pfizer, 2007)
